According to patent publication US6355799B1, “Substituted benzene compounds, process for their preparation, and herbicidal and defoliant compositions containing them” (ISK Americas Incorporated, priority 1997, dated 2002):

What was measured:
Assay type in all cases: in vivo
[1] = system: field corn (Zea mays L., var. Dekalb 535, CORN); test: Post-emerge test, crop safety; details: post-emerge, 14 days after application, rating scale 0-100
Summary of the method: (§1)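 Each test used a mechanized track sprayer delivering 187 l/ha of acetone solution at 15–1000 g ai/ha. Post-emerge foliage at 2–3 leaves was treated with added 0.25% v/v non-ionic surfactant and bottom-watered only. Injury was assessed on day 14, where 100 means total kill.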

[2] = system: upland rice (Oryza sp., var. Tebonnet, RICE); test: Post-emerge test, crop safety; details: post-emerge, 14 days after application, rating scale 0-100
Summary of the method: as §1

[3] = system: ivyleaf morningglory (Ipomoea hederacea, IPOHE); test: Pre-emerge test, greenhouse herbicide activity screening; details: pre-emerge, 14 days after application, rating scale 0-100
Summary of the method: (§2)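 Plants grown in 10 cm pots of sandy loam mix received acetone-dissolved compounds through a moving flat-fan nozzle. Doses ranged from 15 to 1000 g ai/ha. Pre-emerge pots were seeded one day earlier, post-emerge pots 8–21 days earlier. Fourteen days on, each pot was graded 0–100 for damage.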

[4] = system: velvetleaf (Abutilon theophrasti, ABUTH); test: as above; details: pre-emerge, 14 days after application, rating scale 0-100
Summary of the method: as §2

[5] = system: green foxtail (Setaria viridis, SETVI); test: as above; details: pre-emerge, 14 days after application, rating scale 0-100
Summary of the method: as §2

[6] = system: barnyardgrass (Echinochloa crus-galli, ECHCG); test: as above; details: pre-emerge, 14 days after application, rating scale 0-100
Summary of the method: as §2

[7] = system: lambsquarters (Chenopodium album, CHEAL); test: as above; details: pre-emerge, 14 days after application, rating scale 0-100
Summary of the method: as §2

[8] = system: sicklepod (Cassia obtusifolia, CASOB); test: as above; details: pre-emerge, 14 days after application, rating scale 0-100
Summary of the method: as §2

[9] = system: johnsongrass (Sorghum halepense, SORHA); test: as above; details: pre-emerge, 14 days after application, rating scale 0-100
Summary of the method: as §2

[10] = system: large crabgrass (Digitaria sanguinalis, DIGSA); test: as above; details: pre-emerge, 14 days after application, rating scale 0-100
Summary of the method: as §2

[11] = system: redroot pigweed (Amaranthus retroflexus, AMARE); test: as above; details: pre-emerge, 14 days after application, rating scale 0-100
Summary of the method: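 Compounds in acetone were track-sprayed at 15-1000 g ai/ha (187 l/ha) on sandy loam pots: pre-emerge one day after seeding, post-emerge at 2-3 leaf stage with 0.25% v/v non-ionic surfactant. Phytotoxicity was rated 14 days later on a 0 (no damage) to 100 (complete death) scale.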

[12] = system: ivyleaf morningglory (Ipomoea hederacea, IPOHE); test: Post-emerge test, greenhouse herbicide activity screening; details: post-emerge, 14 days after application, rating scale 0-100
Summary of the method: (§3)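 Herbicidal damage is scored 0 (none) to 100 (complete plant death) two weeks after a simulated field spray. Rates span 15–1000 g ai/ha, delivered in acetone at 187 l/ha. For post-emergence treatments, plants have 2–3 leaves and the spray carries 0.25% v/v non-ionic surfactant.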

[13] = system: velvetleaf (Abutilon theophrasti, ABUTH); test: as above; details: post-emerge, 14 days after application, rating scale 0-100
Summary of the method: as §3

[14] = system: green foxtail (Setaria viridis, SETVI); test: as above; details: post-emerge, 14 days after application, rating scale 0-100
Summary of the method: as §3

[15] = system: barnyardgrass (Echinochloa crus-galli, ECHCG); test: as above; details: post-emerge, 14 days after application, rating scale 0-100
Summary of the method: as §3

[16] = system: lambsquarters (Chenopodium album, CHEAL); test: as above; details: post-emerge, 14 days after application, rating scale 0-100
Summary of the method: as §3

[17] = system: sicklepod (Cassia obtusifolia, CASOB); test: as above; details: post-emerge, 14 days after application, rating scale 0-100
Summary of the method: as §3

[18] = system: johnsongrass (Sorghum halepense, SORHA); test: as above; details: post-emerge, 14 days after application, rating scale 0-100
Summary of the method: as §3

[19] = system: large crabgrass (Digitaria sanguinalis, DIGSA); test: as above; details: post-emerge, 14 days after application, rating scale 0-100
Summary of the method: as §3

[20] = system: redroot pigweed (Amaranthus retroflexus, AMARE); test: as above; details: post-emerge, 14 days after application
Summary of the method: as §3

[21] = system: field corn (Zea mays L., var. Dekalb 535, CORN); test: Pre-emerge test, crop safety; details: pre-emerge, 14 days after application, rating scale 0-100
Summary of the method: (§4)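 Compounds in acetone were track-sprayed at 187 l/ha, 15–1000 g ai/ha, onto sandy loam pots. Pre-emerge seeds were sown one day before spraying, with surface watering afterwards. Post-emerge plants were at the 2–3 leaf stage and sprayed with 0.25% v/v non-ionic surfactant. Injury was rated 0–100 at 14 days.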

[22] = system: upland rice (Oryza sp., var. Tebonnet, RICE); test: Pre-emerge test, crop safety; details: pre-emerge, 14 days after application, rating scale 0-100
Summary of the method: as §4

[23] = 63 g ai/ha, rating scale 0-100 (0 no damage, 100 complete death)
[24] = 250 g ai/ha, rating scale 0-100

## COc1c(Cl)cc(F)c(-n2c(=O)cc(C(F)(F)F)n(C)c2=O)c1Sc1ccc2ccccc2c1 [17-4]
[1]; 63 g ai/ha
  Post-emerge Herbicidal Activity CORN (crop damage rating): 0
[1]; 250 g ai/ha
  Post-emerge Herbicidal Activity CORN (crop damage rating): 0
[2]; 63 g ai/ha
  Post-emerge Herbicidal Activity RICE (crop damage rating): 0
[2]; 250 g ai/ha
  Post-emerge Herbicidal Activity RICE (crop damage rating): 0
[3]; 63 g ai/ha
  phytotoxicity rating IPOHE: 0
[3]; 250 g ai/ha
  phytotoxicity rating IPOHE: 10
[4]; 63 g ai/ha
  phytotoxicity rating ABUTH: 0
[4]; 250 g ai/ha
  phytotoxicity rating ABUTH: 60
[5]; 63 g ai/ha
  phytotoxicity rating SETVI: 0
[5]; 250 g ai/ha
  phytotoxicity rating SETVI: 20
[6]; 63 g ai/ha
  phytotoxicity rating ECHCG: 0
[6]; 250 g ai/ha
  phytotoxicity rating ECHCG: 0
[7]; 63 g ai/ha
  phytotoxicity rating CHEAL: 20
[7]; 250 g ai/ha
  phytotoxicity rating CHEAL: 70
[8]; 63 g ai/ha
  phytotoxicity rating CASOB: 0
[8]; 250 g ai/ha
  phytotoxicity rating CASOB: 10
[9]; 63 g ai/ha
  phytotoxicity rating SORHA: 0
[9]; 250 g ai/ha
  phytotoxicity rating SORHA: 0
[10]; 63 g ai/ha
  phytotoxicity rating DIGSA: 0
[10]; 250 g ai/ha
  phytotoxicity rating DIGSA: 10
[11]; 63 g ai/ha
  phytotoxicity rating AMARE: 30
[11]; 250 g ai/ha
  phytotoxicity rating AMARE: 100
[12]; 63 g ai/ha
  Post-emerge Herbicidal Activity IPOHE (phytotoxicity rating): 20
[12]; 250 g ai/ha
  Post-emerge Herbicidal Activity IPOHE (phytotoxicity rating): 80
[13]; 63 g ai/ha
  Post-emerge Herbicidal Activity ABUTH (phytotoxicity rating): 35
[13]; 250 g ai/ha
  Post-emerge Herbicidal Activity ABUTH (phytotoxicity rating): 70
[14]; 63 g ai/ha
  Post-emerge Herbicidal Activity SETVI (phytotoxicity rating): 0
[14]; 250 g ai/ha
  Post-emerge Herbicidal Activity SETVI (phytotoxicity rating): 0
[15]; 63 g ai/ha
  Post-emerge Herbicidal Activity ECHCG (phytotoxicity rating): 0
[15]; 250 g ai/ha
  Post-emerge Herbicidal Activity ECHCG (phytotoxicity rating): 0
[16]; 63 g ai/ha
  Post-emerge Herbicidal Activity CHEAL (phytotoxicity rating): 20
[16]; 250 g ai/ha
  Post-emerge Herbicidal Activity CHEAL (phytotoxicity rating): 40
[17]; 63 g ai/ha
  Post-emerge Herbicidal Activity CASOB (phytotoxicity rating): 10
[17]; 250 g ai/ha
  Post-emerge Herbicidal Activity CASOB (phytotoxicity rating): 20
[18]; 63 g ai/ha
  Post-emerge Herbicidal Activity SORHA (phytotoxicity rating): 0
[18]; 250 g ai/ha
  Post-emerge Herbicidal Activity SORHA (phytotoxicity rating): 0
[19]; 63 g ai/ha
  Post-emerge Herbicidal Activity DIGSA (phytotoxicity rating): 0
[19]; 250 g ai/ha
  Post-emerge Herbicidal Activity DIGSA (phytotoxicity rating): 0
[20]; [23]
  Post-emerge Herbicidal Activity AMARE (phytotoxicity rating): 20
[20]; [24]
  Post-emerge Herbicidal Activity AMARE (phytotoxicity rating): 70
[21]; 63 g ai/ha
  phytotoxicity rating CORN: 0
[21]; 250 g ai/ha
  phytotoxicity rating CORN: 0
[22]; 63 g ai/ha
  phytotoxicity rating RICE: 0
[22]; 250 g ai/ha
  phytotoxicity rating RICE: 10

## COCC(C)=NNc1c(OC)c(Cl)cc(F)c1-n1c(=O)cc(C(F)(F)F)n(C)c1=O [15-13]
[1]; 63 g ai/ha
  Post-emerge Herbicidal Activity CORN (crop damage rating): 15
[1]; 250 g ai/ha
  Post-emerge Herbicidal Activity CORN (crop damage rating): 50
[2]; 63 g ai/ha
  Post-emerge Herbicidal Activity RICE (crop damage rating): 60
[2]; 250 g ai/ha
  Post-emerge Herbicidal Activity RICE (crop damage rating): 90
[3]; 46 g ai/ha
  phytotoxicity rating IPOHE: 100
[3]; 185 g ai/ha
  phytotoxicity rating IPOHE: 100
[4]; 46 g ai/ha
  phytotoxicity rating ABUTH: 100
[4]; 185 g ai/ha
  phytotoxicity rating ABUTH: 100
[5]; 46 g ai/ha
  phytotoxicity rating SETVI: 100
[5]; 185 g ai/ha
  phytotoxicity rating SETVI: 100
[6]; 46 g ai/ha
  phytotoxicity rating ECHCG: 99
[6]; 185 g ai/ha
  phytotoxicity rating ECHCG: 100
[7]; 46 g ai/ha
  phytotoxicity rating CHEAL: 100
[7]; 185 g ai/ha
  phytotoxicity rating CHEAL: 100
[8]; 46 g ai/ha
  phytotoxicity rating CASOB: 100
[8]; 185 g ai/ha
  phytotoxicity rating CASOB: 100
[9]; 46 g ai/ha
  phytotoxicity rating SORHA: 99
[9]; 185 g ai/ha
  phytotoxicity rating SORHA: 100
[10]; 46 g ai/ha
  phytotoxicity rating DIGSA: 100
[10]; 185 g ai/ha
  phytotoxicity rating DIGSA: 100
[11]; 46 g ai/ha
  phytotoxicity rating AMARE: 100
[11]; 185 g ai/ha
  phytotoxicity rating AMARE: 100
[12]; 63 g ai/ha
  Post-emerge Herbicidal Activity IPOHE (phytotoxicity rating): 100
[12]; 250 g ai/ha
  Post-emerge Herbicidal Activity IPOHE (phytotoxicity rating): 100
[13]; 63 g ai/ha
  Post-emerge Herbicidal Activity ABUTH (phytotoxicity rating): 100
[13]; 250 g ai/ha
  Post-emerge Herbicidal Activity ABUTH (phytotoxicity rating): 100
[14]; 63 g ai/ha
  Post-emerge Herbicidal Activity SETVI (phytotoxicity rating): 20
[14]; 250 g ai/ha
  Post-emerge Herbicidal Activity SETVI (phytotoxicity rating): 60
[15]; 63 g ai/ha
  Post-emerge Herbicidal Activity ECHCG (phytotoxicity rating): 20
[15]; 250 g ai/ha
  Post-emerge Herbicidal Activity ECHCG (phytotoxicity rating): 85
[16]; 63 g ai/ha
  Post-emerge Herbicidal Activity CHEAL (phytotoxicity rating): 95
[16]; 250 g ai/ha
  Post-emerge Herbicidal Activity CHEAL (phytotoxicity rating): 100
[17]; 63 g ai/ha
  Post-emerge Herbicidal Activity CASOB (phytotoxicity rating): 60
[17]; 250 g ai/ha
  Post-emerge Herbicidal Activity CASOB (phytotoxicity rating): 100
[18]; 63 g ai/ha
  Post-emerge Herbicidal Activity SORHA (phytotoxicity rating): 10
[18]; 250 g ai/ha
  Post-emerge Herbicidal Activity SORHA (phytotoxicity rating): 70
[19]; 63 g ai/ha
  Post-emerge Herbicidal Activity DIGSA (phytotoxicity rating): 10
[19]; 250 g ai/ha
  Post-emerge Herbicidal Activity DIGSA (phytotoxicity rating): 70
[20]; [23]
  Post-emerge Herbicidal Activity AMARE (phytotoxicity rating): 80
[20]; [24]
  Post-emerge Herbicidal Activity AMARE (phytotoxicity rating): 95
[21]; 46 g ai/ha
  phytotoxicity rating CORN: 35
[21]; 185 g ai/ha
  phytotoxicity rating CORN: 100
[22]; 46 g ai/ha
  phytotoxicity rating RICE: 90
[22]; 185 g ai/ha
  phytotoxicity rating RICE: 100
